Data on two compounds can be found in patent US8748602B2, “Polymorphs of erlotinib hydrochloride and method of preparation” (Natco Pharma Limited, priority 2007, dated 2014).

Counter-ions that a name gives are not always drawn.

The conditions of data set [1]: compared with polymorphic Form A; cited from earlier work.
The nature of data set [2]: solid state stability of the polymorphic forms. The class given is physicochemical.

As to `C#Cc1cccc(Nc2ncnc3cc(OCCOC)c(OCCOC)cc23)c1` [Form-B, Erlotinib HCl], the thermodynamic stability result in data set [1] is given as “thermodynamically more stable”.
Consider `C#Cc1cccc(Nc2ncnc3cc(OCCOC)c(OCCOC)cc23)c1.Cl` [Form-M, Erlotinib Hydrochloride], for which the “stability in the solid state” value in data set [2] (higher temperatures of the order of 60°-120° C.) and in data set [2] (room temperature (30°-35° C.)) was “very stable” throughout.
